Data published in ChEMBL document CHEMBL2074451, “ATP- and glutathione-dependent transport of chemotherapeutic drugs by the multidrug resistance protein MRP1” (Br J Pharmacol, 1999).

Key:
[1] = target: ATP-dependent translocase ABCB1 (Homo sapiens, UniProt P08183); assay: TP_TRANSPORTER: uptake in A2780 and A2780AD cells; type: functional, cell-based
[2] = target: Multidrug resistance-associated protein 1 (Homo sapiens, UniProt P33527); assay: TP_TRANSPORTER: uptake in membrane vesicles from GLC4/ADR cells; type: functional, cell membranes, Membrane vesicle; details: glc-4/adr
Multidrug resistance-associated protein 1, sequence (P33527 whole entry): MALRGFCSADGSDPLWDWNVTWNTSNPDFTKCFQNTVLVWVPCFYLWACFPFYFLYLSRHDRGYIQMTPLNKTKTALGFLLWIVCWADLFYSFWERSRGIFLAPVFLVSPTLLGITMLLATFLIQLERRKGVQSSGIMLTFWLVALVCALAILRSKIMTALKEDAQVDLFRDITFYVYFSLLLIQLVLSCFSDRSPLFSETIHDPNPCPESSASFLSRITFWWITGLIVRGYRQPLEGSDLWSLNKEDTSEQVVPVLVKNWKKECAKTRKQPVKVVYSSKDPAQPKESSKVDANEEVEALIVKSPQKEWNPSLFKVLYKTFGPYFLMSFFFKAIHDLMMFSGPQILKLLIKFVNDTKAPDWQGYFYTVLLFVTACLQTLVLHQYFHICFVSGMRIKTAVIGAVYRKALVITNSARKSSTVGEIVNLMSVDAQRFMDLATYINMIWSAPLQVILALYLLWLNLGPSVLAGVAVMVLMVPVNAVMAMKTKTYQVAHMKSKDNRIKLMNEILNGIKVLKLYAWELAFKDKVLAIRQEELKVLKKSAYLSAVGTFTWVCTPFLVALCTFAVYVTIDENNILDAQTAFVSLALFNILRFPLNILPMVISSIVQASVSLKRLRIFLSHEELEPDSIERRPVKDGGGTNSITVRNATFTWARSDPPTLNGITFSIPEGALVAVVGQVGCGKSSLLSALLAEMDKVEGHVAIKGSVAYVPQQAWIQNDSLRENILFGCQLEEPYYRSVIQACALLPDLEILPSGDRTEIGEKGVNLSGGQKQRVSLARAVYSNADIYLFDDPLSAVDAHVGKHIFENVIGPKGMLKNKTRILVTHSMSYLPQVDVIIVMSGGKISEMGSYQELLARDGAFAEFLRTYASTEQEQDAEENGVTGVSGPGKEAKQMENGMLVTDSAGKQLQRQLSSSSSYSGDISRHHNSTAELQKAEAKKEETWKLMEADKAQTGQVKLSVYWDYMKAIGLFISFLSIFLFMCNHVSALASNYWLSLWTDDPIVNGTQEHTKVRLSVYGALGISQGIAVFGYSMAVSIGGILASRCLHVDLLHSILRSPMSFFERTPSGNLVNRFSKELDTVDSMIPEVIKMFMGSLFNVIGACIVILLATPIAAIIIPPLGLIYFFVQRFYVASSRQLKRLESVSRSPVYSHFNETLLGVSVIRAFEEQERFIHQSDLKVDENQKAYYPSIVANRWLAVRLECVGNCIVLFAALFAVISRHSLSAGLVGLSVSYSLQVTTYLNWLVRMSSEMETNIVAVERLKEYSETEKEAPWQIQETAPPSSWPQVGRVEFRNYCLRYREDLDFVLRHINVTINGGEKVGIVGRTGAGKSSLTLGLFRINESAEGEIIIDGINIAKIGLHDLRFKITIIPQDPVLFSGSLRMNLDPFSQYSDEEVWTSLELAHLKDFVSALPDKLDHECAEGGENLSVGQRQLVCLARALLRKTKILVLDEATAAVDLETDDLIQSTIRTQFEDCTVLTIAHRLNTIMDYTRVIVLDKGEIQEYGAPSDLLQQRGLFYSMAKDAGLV

ATP-dependent translocase ABCB1, sequence (P08183 whole entry): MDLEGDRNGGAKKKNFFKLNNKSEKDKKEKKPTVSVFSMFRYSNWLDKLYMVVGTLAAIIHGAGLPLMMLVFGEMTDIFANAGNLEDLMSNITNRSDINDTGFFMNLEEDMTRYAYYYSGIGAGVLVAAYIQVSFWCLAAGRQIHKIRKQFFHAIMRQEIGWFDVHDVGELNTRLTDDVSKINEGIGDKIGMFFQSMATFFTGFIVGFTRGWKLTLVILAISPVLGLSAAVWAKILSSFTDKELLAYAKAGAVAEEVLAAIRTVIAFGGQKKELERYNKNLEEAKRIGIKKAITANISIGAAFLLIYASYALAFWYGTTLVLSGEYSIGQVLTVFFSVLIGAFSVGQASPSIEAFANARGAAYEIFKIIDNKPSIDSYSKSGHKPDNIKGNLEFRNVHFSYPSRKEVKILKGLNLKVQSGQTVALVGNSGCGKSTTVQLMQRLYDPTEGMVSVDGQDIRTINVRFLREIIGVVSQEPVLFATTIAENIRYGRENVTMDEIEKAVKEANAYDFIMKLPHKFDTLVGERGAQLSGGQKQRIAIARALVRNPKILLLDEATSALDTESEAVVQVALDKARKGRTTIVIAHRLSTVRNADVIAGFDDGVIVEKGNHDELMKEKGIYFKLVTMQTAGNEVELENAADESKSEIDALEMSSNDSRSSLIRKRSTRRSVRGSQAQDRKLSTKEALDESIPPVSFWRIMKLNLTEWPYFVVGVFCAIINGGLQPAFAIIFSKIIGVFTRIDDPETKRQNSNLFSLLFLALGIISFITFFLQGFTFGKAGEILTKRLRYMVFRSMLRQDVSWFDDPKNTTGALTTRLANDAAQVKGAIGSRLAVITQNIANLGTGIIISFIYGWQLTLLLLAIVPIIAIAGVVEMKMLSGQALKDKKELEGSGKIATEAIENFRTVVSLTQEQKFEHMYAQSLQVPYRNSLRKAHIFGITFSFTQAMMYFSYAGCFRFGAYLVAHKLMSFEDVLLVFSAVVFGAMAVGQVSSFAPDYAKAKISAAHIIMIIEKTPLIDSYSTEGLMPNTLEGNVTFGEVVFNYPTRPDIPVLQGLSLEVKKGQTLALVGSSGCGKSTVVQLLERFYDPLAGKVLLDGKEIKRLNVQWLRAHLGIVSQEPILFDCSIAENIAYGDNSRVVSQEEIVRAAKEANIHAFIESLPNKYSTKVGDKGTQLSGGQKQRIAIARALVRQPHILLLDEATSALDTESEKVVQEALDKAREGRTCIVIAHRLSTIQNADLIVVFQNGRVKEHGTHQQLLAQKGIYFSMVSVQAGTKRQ

Activity [2] | Structure (SMILES) | Activity [1]
 | CCC1C[N+]2(CCCC3(C)N=N3)C3CC45c6ccccc6N(C)C4C2CC1C3C5O (configuration not stated) | substrate [+]
substrate [+] | CC[C@]1(O)C[C@H]2CN(CCc3c([nH]c4ccccc34)[C@@](C(=O)OC)(c3cc4c(cc3OC)N(C=O)[C@H]3[C@@](O)(C(=O)OC)[C@H](OC(C)=O)[C@]5(CC)C=CCN6CC[C@]43[C@@H]65)C2)C1 [VINCRISTINE] | 
